This note sets out measurements from ChEMBL document CHEMBL1135549 (J Med Chem, 2002).

Assay [1] has as its target T1, Fatty-acid amide hydrolase 1 (Homo sapiens, UniProt O00519).
T1 sequence (O00519 whole entry): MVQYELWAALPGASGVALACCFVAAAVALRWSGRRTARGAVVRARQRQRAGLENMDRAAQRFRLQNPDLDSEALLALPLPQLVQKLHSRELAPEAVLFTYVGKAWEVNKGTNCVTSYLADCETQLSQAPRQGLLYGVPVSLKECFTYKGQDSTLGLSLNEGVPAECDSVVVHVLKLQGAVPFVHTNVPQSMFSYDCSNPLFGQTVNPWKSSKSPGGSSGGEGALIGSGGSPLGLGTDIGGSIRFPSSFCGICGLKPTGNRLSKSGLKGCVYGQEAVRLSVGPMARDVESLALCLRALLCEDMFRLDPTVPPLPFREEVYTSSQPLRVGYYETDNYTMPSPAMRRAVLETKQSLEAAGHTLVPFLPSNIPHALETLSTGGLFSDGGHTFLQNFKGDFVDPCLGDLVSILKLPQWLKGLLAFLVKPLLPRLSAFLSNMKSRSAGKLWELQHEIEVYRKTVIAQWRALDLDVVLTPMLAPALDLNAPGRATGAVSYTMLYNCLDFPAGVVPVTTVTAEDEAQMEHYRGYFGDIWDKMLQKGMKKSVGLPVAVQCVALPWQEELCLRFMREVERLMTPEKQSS
The experiment in a line: Inhibition of Fatty-acid amide hydrolase (FAAH) activity in human lymphoma U937 cell using [3H]AEA as substrate in the 0-25 uM conc. Type of assay: cell-based, U-937.

Assay [2] is described as follows: Inhibition of N-arachidonoylethanolamine transporter (AEA) activity in human lymphoma U937 cell using [3H]AEA as substrate in the 0-1000 nM conc. It is filed as cell-based. Particulars: u-937.
In the next assay the target is Cannabinoid receptor 1 (Rattus norvegicus, UniProt P20272). The experiment in a line: Displacement of [3H]CP-55940 from rat forebrain membrane which expresses Cannabinoid receptor 1 in the presence of PMSF.
Cannabinoid receptor 1, sequence (P20272 whole entry): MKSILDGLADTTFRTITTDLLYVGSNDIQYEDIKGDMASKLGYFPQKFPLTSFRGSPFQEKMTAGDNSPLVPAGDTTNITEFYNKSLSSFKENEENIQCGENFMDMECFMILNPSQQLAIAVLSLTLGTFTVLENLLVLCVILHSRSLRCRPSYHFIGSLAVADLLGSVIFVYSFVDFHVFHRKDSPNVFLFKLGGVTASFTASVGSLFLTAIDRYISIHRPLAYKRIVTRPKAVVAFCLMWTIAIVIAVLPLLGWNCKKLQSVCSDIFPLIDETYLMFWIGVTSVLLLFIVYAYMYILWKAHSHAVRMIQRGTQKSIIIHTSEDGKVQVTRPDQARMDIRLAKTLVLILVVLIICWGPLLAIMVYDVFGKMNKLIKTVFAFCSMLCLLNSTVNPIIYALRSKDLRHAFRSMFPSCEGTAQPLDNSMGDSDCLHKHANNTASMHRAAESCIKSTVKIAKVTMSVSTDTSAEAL
For another assay, the target named is T2, Cannabinoid receptor 2 (Rattus norvegicus, UniProt Q9QZN9).
T2 sequence (Q9QZN9 whole entry): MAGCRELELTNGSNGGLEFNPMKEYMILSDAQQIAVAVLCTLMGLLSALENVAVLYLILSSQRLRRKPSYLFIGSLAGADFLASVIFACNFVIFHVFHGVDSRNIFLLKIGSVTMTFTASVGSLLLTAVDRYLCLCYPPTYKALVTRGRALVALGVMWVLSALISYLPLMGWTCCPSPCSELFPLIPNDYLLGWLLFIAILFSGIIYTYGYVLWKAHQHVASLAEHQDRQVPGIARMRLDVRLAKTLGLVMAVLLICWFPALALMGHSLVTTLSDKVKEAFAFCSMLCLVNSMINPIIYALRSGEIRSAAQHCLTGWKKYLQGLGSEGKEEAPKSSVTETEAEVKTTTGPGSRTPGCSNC
Nature of the assay: Displacement of [3H]CP-55940 from rat forebrain membrane which expresses Cannabinoid receptor 2 in the presence of PMSF.

Assay [3] deals with Cannabinoid receptor (Rattus norvegicus) (UniProt Q9QZN9+P20272). Nature of the assay: Ratio of Ki at CB1 to Ki at CB2 receptors. Type of assay: protein assay.
Cannabinoid receptor (Rattus norvegicus), sequence (P20272 whole entry, looked up, one chain of several): as the sequence (P20272 whole entry) above

pKi: −log10 of the molar value.

As a reminder, the pKi is the negative decadic logarithm of the Ki, by convention in mol/L. For the compound `CCCCC/C=C\C=C\C(O)C/C=C\C/C=C\CCCC(=O)NCCO` (mixture of isomers), the pKi in assay [1] was 6.16; in assay [2], < 5.00; on Cannabinoid receptor 1, < 6.00; on Cannabinoid receptor 2 it was < 6.00.

For `CCCCCC(O)/C=C/C=C\C/C=C\C/C=C\CCCC(=O)NCCO` (mixture of isomers), in assay [3], the Ratio is > 0.7. The pKi was 6.20 in assay [1], < 5.00 in assay [2], 6.17 on Cannabinoid receptor 1 and < 6.00 on Cannabinoid receptor 2.

As to `CCCCC/C=C\C/C=C\C/C=C\C/C=C\CCCC(=O)OC[C@@H](O)CO`, the pKi in assay [1] was 5.52; in assay [2], < 5.00; on Cannabinoid receptor 1 it was < 6.00; on Cannabinoid receptor 2, < 6.00.

For the compound `CCCCC/C=C\C/C=C\C/C=C\C/C=C\CCCC(=O)NCCO` [ANANDAMIDE], the pKi in assay [1] and in assay [2] was < 5.00 in each case.

Regarding `CCCCC[C@H](O)/C=C/C=C\CCCCCCCC(=O)NCCO`, the Ratio in assay [3] was > 1.7. The pKi in assay [1] was 6.37; in assay [2], < 5.00; at Cannabinoid receptor 1, < 6.00; on Cannabinoid receptor 2, 6.22.

Take `CCCCC/C=C\C/C=C\C/C=C\C/C=C\CCCC(=O)OC(CO)CO` [2-ARACHIDONOYLGLYCEROL]: the pKi in assay [1] is 5.30; in assay [2], 5.52; on Cannabinoid receptor 2, 7.00.

`CCCCC/C=C\C[C@@H](O)/C=C/C=C\C/C=C\CCCC(=O)NCCO`: in assay [3], the Ratio turned out to be 0.3. The pKi in assay [1] is 5.54; in assay [2] it was < 5.00; on Cannabinoid receptor 1, 6.82; at Cannabinoid receptor 2, 6.30.

Take `CCCCC[C@H](O)/C=C/C=C\C/C=C\C/C=C\CCCC(=O)OC[C@H](O)CO`: the pKi is 5.30 in assay [1], 5.15 in assay [2], < 6.00 on Cannabinoid receptor 1 and < 6.00 on Cannabinoid receptor 2.

`CCCCC[C@@H](O)/C=C/C=C\C/C=C\C/C=C\CCCC(=O)NCCO`: the Ratio in assay [3] was < 0.6. Besides, the pKi in assay [1] is 6.20; in assay [2] it was < 5.00; on Cannabinoid receptor 1, 6.22; at Cannabinoid receptor 2, < 6.00.

As for `CCCCC/C=C\C=C\[C@@H](O)C/C=C\C/C=C\CCCC(=O)NCCO`, the pKi in assay [1] is 6.24; in assay [2], < 5.00; on Cannabinoid receptor 1, < 6.00; on Cannabinoid receptor 2, < 6.00.

As to `CCCCC[C@H](O)/C=C/C=C\C=C\[C@@H](O)C/C=C\CCCC(=O)NCCO`, the pKi in assay [1] was 6.16; in assay [2], < 5.00; on Cannabinoid receptor 1, < 6.00; on Cannabinoid receptor 2, < 6.00.

For `CCCCC[C@H](O)/C=C/C=C\C/C=C\C/C=C\CCCC(=O)OC[C@@H](O)CO`, the pKi was 5.22 in assay [1], 5.05 in assay [2], < 6.00 on Cannabinoid receptor 1 and 6.26 at Cannabinoid receptor 2.

On to `CCCCC[C@@H](O)/C=C/C=C\C/C=C\C=C\[C@H](O)CCCC(=O)NCCO`, for which the pKi in assay [1] is 5.90; in assay [2], < 5.00; at Cannabinoid receptor 1, < 6.00; on Cannabinoid receptor 2, < 6.00.

For the compound `CCCCC/C=C\C/C=C\C/C=C\C/C=C\CCCC(=O)OC[C@H](O)CO`, the pKi was 5.60 in assay [1], 5.00 in assay [2], < 6.00 on Cannabinoid receptor 1 and < 6.00 at Cannabinoid receptor 2.
